Source: patent publication US11898161B2, “Stem cell culture medium and method” (RIKEN, priority 2006, dated 2024)
“And” between values parts separate entries of the source, which are not always exact repeats. Equal values may be shown once. Residues, ends and D or L forms follow the SMILES beside them. *: point of attachment. Cbz = O=C(OCc1ccccc1)*; CH2F = FC*

Legend:
Type in all cases: cell-based
[1] = tested on: human embryonic stem cells (KhES-1); experiment: Cloning efficiency (colony formation) of dissociated human ES cells at low density on MEF feeder layer; conditions: for cloning efficiency compared to without the inhibitors: Fasudil/HA1077 10 μM, H-1152 200 nM, other kinase inhibitors at ranges of b100
Text: The Human embryonic stem cells used for the experiments described herein were embryonic stem cells (KhES-1, KhES-2 and KhES-3) from human blastocysts established in the laboratory of Norio Nakatsuji, at the Institute for Frontier Medical Sciences, Kyoto University, which were distributed and used (mainly KhES-1) following the human embryonic stem cell guidelines of the Japanese government. In accordance with the method of the Nakatsuji laboratory (Suemori et al., Biochem Biophys Res Commun. 345, 926-32 (2006)), undifferentiated human embryonic stem cells were cultured on a plastic culture dish with mouse embryonic fibroblasts (inactivated with mitomycin, MEF) seeded as a feeder layer of cells. More specifically, the culture medium containing comprising KSR (Invitrogen/Gibco-BRL) at the final concentration of 20%, 1×NEAA (non-essential amino acids, Invitrogen/Gibco BRL), 2 mM L-giutaminic acid and 0.1 mM 2-mercaptoethanol in D-MEM F12 (Sigma D6421) was used, and the culturing was performed at 37° C., 5% CO2. Passaging was performed in every three or four days, and the embryonic stem cells were detached from the feeder layer using the dissociation liquid (containing 0.25% trypsin, 1 mg/mi collagenase IV solution, 1 mM CaCl2 in a phosphate buffered saline; all of which from Invitrogen/Gibco-BRL), followed by dissociated into small cell clumps (of about 50-100 cells) by pipetting, and then were seeded on the feeder layer which had been formed from seeding MEF on the day before.
The cell death inhibiting effect and the influence on cloning efficiency, of ROCK inhibitor, for the human embryonic stem cell culture after dissociation to single cells were examined as follows. […] The embryonic stem cell clumps ware dissociated to single cells by trypsin digestion (0.25% trypsin—EDTA, at 37° C. for 5 minutes), and seeded on a MEF feeder layer in 96 well culture plates at low density (500 cells/0.32 cm^2 in 0.15 ml of medium). The number of formed colonies was counted six days after culture in the maintenance culture medium. ROCK inhibitor Y-27632 was added at the concentration of 10 μM one hour prior to detaching the cells from the feeder layer, and the same amount was added to culture in the same amount after the detachment.
The effects of other ROCK inhibitors on the cloning efficiency of human embryonic stem cells in maintenance culture were evaluated using methods as described in example 1. The ROCK inhibitors, Fasudil/HA1077 (10 μM) and H-1152 (200 nM) were used. Also, inhibitors for other kinases were used for reference. The inhibitors for other kinases used were: cAMP-Rp (1-100 μM) and KT5720 (5-500 nM), which are protein kinase A inhibitors; bisindolylmaleimide (0.01-5 μM) and staurosporine (1-50 nM), which are protein kinase C inhibitors; PD98059 (0.5-50 μM), which is an MAPK inhibitor; LY294002 (1-50 μM), which is a PI3K inhibitor; and ML-7 (0.3-30 μM), which is an MLCK inhibitor.

human ES cells (KhES-1) [2] = experiment: Number of surviving cells in suspension culture (SFEB) of dissociated human ES cells; conditions: 8% in non-supplemented group
Experimental: (§1) Human ES cells subjected to maintenance culture were detached as small cell clumps (aggregates) from feeder cells in the same manner as in Example 1, and after removal of residual feeder cells, they were dissociated into single cells by trypsin digestion. After centrifugation, 2×10^5 cells were dissociated in serum-free culture medium for post differentiation induction (Watanabe et al., Nature Neuroscience 8, 288-296, 2005; supplemented with G-MEM, KSR and 2-mercaptoethanol, KSR was added at a concentration of 20%). The singly-dissociated human ES cells (1.0×10^5 cells/ml) were suspension-cultured in a non-cell adhesive 35 mm culture plate to form aggregates, and were cultured in the same culture medium for 2-6 days (SFEB method; See the above reference of Watanabe et al.). After 2-day culture, the percentage of apoptic cells was measured by TUNEL method (MEBSTAIN Apoptosis kit Direct, MBL). Treatment with ROCK inhibitor, Y-27632, was initiated at 1 hour before cell separation in the same manner as in Example 1, and the inhibitor was added to maintenance culture medium also after dissociation. For comparison, caspase inhibitor (ZVAD; 10 μM) and BDNF/NT-3/NT-4 (mixture of 50 ng/ml each), whose apoptosis suppressive effect has been reported, were used to conduct the experiment. In addition, the number of surviving cells on day 6 was counted in each case.

human ES cells [3] = experiment: Differentiation induction into neuronal and brain precursor cells by SFEB method from singly-dissociated human ES cells
Text: Human ES cells subjected to maintenance culture were detached from feeder cells as small cell clumps in the same manner as in Example 4, and after removal of residual feeder cells, they were dissociated into single cells by trypsin digestion. After centrifugation, cells were dissociated into culture medium for differentiation induction at 2×10^5 cells/mL, and were suspension-cultured using a non-cell adhesive culture plate to conduct serum-free culture (SFEB method) of suspended aggregates. In addition, Nodal inhibitor LeftyA (1 μg/ml, R&D), Wnt inhibitor Dkk1 (500 ng/ml, R&D) and BMP inhibitor BMPR1A-Fc (1.5 μg/ml, R&D) were added for the first 10 days after the start of culture for differentiation induction. After serum-free suspension culture for 16-35 days, the cell aggregates were fixed and immunostained by fluorescence antibody method. Treatment with the ROCK inhibitor, Y-27632, was initiated at 1 hour before cell separation in the same manner as in Example 1, and the inhibitor was added to maintenance culture medium for the first six days also after dissociation. For the differentiation into brain precursor cells, on day 25 of SFEB culture, floating cell aggregates were transferred into a poly-D-lysine/laminin/fibronectin-coated culture slide, and were cultured in an adhesion state for additional 10 days. In the adhesion culture, Neurobasal medium, supplemented with B27 (vitamin A-free) and 2 mM L-glutamine (both supplied by Gibco-BRL), was used as a culture medium.

human ES cells (KhES-1) [4] = experiment: Feeder-free culture of singly-dissociated human ES cells, colony formation; conditions: 10 μM Y-27632, feeder-free, MEF-conditioned medium, 500 cells/well; less than 0.2% untreated
Experimental: Specifically, according to the above literature, MEF cells cultured to confluency were lysed on a culture dish by deoxycholate method to leave only extracellular matrix. Singly-dissociated human ES cells (500 cells/well of a 96-well plate) were seeded onto them under Y-2763 treatment (10 μM or 0 μM) by the same method as for the routine culture on MEF cells (abovementioned Example). Conditioned medium, in which human ES cell maintenance medium and MEF were preliminarily cultured for one day, was used as a culture medium. The number of human ES cell colonies formed 5 days later were counted.

human ES cells [5] = experiment: Maintenance culture of singly-dissociated human ES cells on MEF with different time courses of treatment (survival, growth, apoptosis); conditions: for population doubling time: days 2 to 6 after start of dissociation culture
Experimental: As for the maintenance culture of singly-dissociated human ES cells, in order to examine whether Y-27632 promotes cell survival at the early phase of dissociation culture, Y-27632 treatment time was divided into the following three groups to compare cell survival-promoting effects in maintenance culture. Group 1: Y-27632 treatment (10 μM, same below) was conducted as 1 hour-pretreatment and only for the first 12 hours of culture after dissociation in the process of dissociation culture of human ES cells. Group 2: Y-27632 treatment was conducted as 1 hour-pretreatment and for the entire culture period after dissociation in the process of dissociation culture of human ES cells. Group 3: No Y-27632 treatment was conducted. In these groups, surviving cells on day 3 per seeded cells (5×10^4 cells per one well of a 6-well plate) were counted in maintenance culture system on MEF layer. In the same experiment as in the above Example 7, the effect of Y-27632 on the cell growth for 6 days after the start of dissociation culture was examined in Groups 1 and 2 by extending the culture period to 6 days.

human ES cells (KhES-1) [6] = experiment: TUNEL apoptosis assay in suspension culture of dissociated human ES cells; conditions: after 2-day suspension culture; 80% in non-supplemented control
Experimental: as §1

hES cells (KhES-3) = conditions: human, 3 months
Experimental: FIGS. 4A-4L—Analysis of hES cells cultured in the presence of Y-27632 at low density. (FIGS. 4A-4C) Immunostaining of E-cadherin (FIG. 4A), Oct3/4 (FIG. 4B) and SSEA-4 (FIG. 4C) in Y-27632-treated hES cells (KhES-1) after extended passaging (30 times) at low density with Y-27632 treatment. Lower panels show DAPI staining (blue). (FIGS. 4D-4G) Histological analysis (hematoxylin-eosin staining, […] paraffin section) of teratoma tissues formed after subcapsular injection of hES cells (KhES-1) following extended passaging with Y-27632 into SCID mouse testes. (FIG. 4D) Cartilage, (FIG. 4E) neuroepithelium, (FIG. 4F) pigmented epithelium, and (g) gut-like mucosa with columnar epithelium. (FIG. 4H, FIG. 4I) After extended passaging involving low-density culture with Y-27632 treatment, efficient colony formation from dissociated hES cells (32.5±11%; KhES-1) remained dependent on Y-27632 (FIG. 4I) and few colonies were seen without it (FIG. 4H). (FIG. 4J) Dose-response relationship of two selective ROCK inhibitors (Y-27632, Fasudil; the cloning efficiency was 1.3±0.8% and 25.1±1.6% without and with 10 μM Fasudil; P<0.001, n=3) and two unrelated kinase inhibitors (cAMP-Rp, LY294002) on colony formation (KhES-1). Y-axis, ratios of promoting activity of colony formation to that with 10 μM Y-27632. […]

[7] = tested on: human embryonic stem cells; experiment: Cloning efficiency at clonal density (one cell per well, 96 well plates) on MEF; conditions: 10 μM, under 1% without inhibitor
Experimental: The cell death inhibiting effect and the influence on cloning efficiency, of ROCK inhibitor, for the human embryonic stem cell culture after dissociation to single cells were examined as follows. […] The number of formed colonies was counted six days after culture in the maintenance culture medium. ROCK inhibitor Y-27632 was added at the concentration of 10 μM one hour prior to detaching the cells from the feeder layer, and the same amount was added to culture in the same amount after the detachment. Also, to evaluate whether promotion of cloning would be caused by the autocrine factor of human embryonic stem cell, a similar experiment was performed in 96 well culture plates at clonal density (one cell per well) of human embryonic stem cells, and the cloning efficiency was determined.

O=S(=O)(c1cccc2cnccc12)N1CCCNCC1 [Fasudil]
cloning efficiency ([1]; 10 μM Fasudil, KhES-1, 1.3±0.8% without, P<0.001, n=3): 25.1±1.6%
cloning efficiency compared to without the inhibitors [1]: significant enhanced cloning efficiencies

Cc1cncc2cccc(S(=O)(=O)N3CCCNC[C@@H]3C)c12 [H-1152]
cloning efficiency compared to without the inhibitors [1]: significant enhanced cloning efficiencies

C[C@@H](N)[C@H]1CC[C@H](C(=O)Nc2ccncc2)CC1 [Y-27632]
surviving cells on day 6 (of plated cells) (human ES cells (KhES-1) [2]): 70%
Oct3/4 positive cells (undifferentiated-state ES cell marker) (human ES cells [3]; day 24 of differentiation culture): less than 10%
Pax6-positive cells (human ES cells [3]; day 24 of differentiation culture, Y-27632 first six days, with LeftyA, Dkk1, BMPR1A-Fc): about 80%
cell aggregates with many Bf1 positive cells (brain precursor marker) (human ES cells [3]; day 35 of differentiation culture): about 60%
cloning efficiency per seeded human ES cell, feeder-free (human ES cells (KhES-1) [4]): 10.2% and 10.2±1.2%
surviving cells on day 3 per seeded cells (human ES cells [5]; Group 1: 10 μM, 1 hour pretreatment and first 12 hours after dissociation only): 270%
number of cells on day 6 relative to initially seeded cells (human ES cells [5]; Group 1: first 12 hours only): 670%
population doubling time (human ES cells [5]; Group 1): 49.0 h
surviving cells on day 3 per seeded cells (human ES cells [5]; Group 2: 10 μM, 1 hour pretreatment and entire culture period): 290%
number of cells on day 6 relative to initially seeded cells (human ES cells [5]; Group 2: entire culture period): 860%
population doubling time (human ES cells [5]; Group 2): 41.5 h
percentage of apoptosis (active Caspase 3-positive cells) (human ES cells [5]; both Groups 1 and 2, days 3 and 5): less than 1%
TUNEL-positive (apoptotic) cells (human ES cells (KhES-1) [6]): 9%
normal karyotype (hES cells (KhES-3)): 100%
cloning efficiency (ratio of formed colonies to initially seeded human embryonic stem cells) ([1]; 10 μM Y-27632, 500 cells/well on MEF, six days culture, 1% without inhibitor): 27%
colony formation from dissociated hES cells after extended passaging ([1]; KhES-1 after extended passaging (low-density culture with Y-27632 treatment), few colonies without it): 32.5±11%
cloning efficiency [7]: 25%

COC(=O)C[C@H](NC(=O)[C@H](C)NC(=O)[C@@H](NC(=O)OCc1ccccc1)C(C)C)C(=O)CF [ZVAD] (Cbz-Val-Ala-Asp(OMe)-CH2F)
TUNEL-positive (apoptotic) cells (human ES cells (KhES-1) [6]): 72%
